Measurements reported in patent publication US11219656B2 (Industry-Academic Cooperation Foundation, Yonsei University, priority 2011, dated 2022).

What was measured:
[1] = test system: SD-based rat; settings: single oral dose of 1 g/kg
Protocol: 6-week old specific pathogen-free (SPF) SD-based rat supplied from the DAEHAN Experiment Supply Center was used and the acute toxicity experiments were conducted as follows.
The animal mortality, clinical symptoms, and change in the body weight were observed and then hematologic testing and blood biochemical tests were conducted.

[2] = test system: ALP (alkaline phosphatase); assay: ALP activity analysis; assay type: cell-based; settings: within the concentration gradient (FIG. 9 and FIG. 10)
[3] = test system: calvaria; assay: Calvaria thickness measurement, gallocatechin and methyl vanillate treatment; assay type: cell-based; settings: calvaria of 4-day-old postnatal mice under differentiation, one week (FIG. 7)
Protocol: While inducing the differentiation in the calvaria of 4-day-old postnatal mice supplied by Orient Bio. 2 nM of gallocatechin and 0.2 nM of methyl vanillate were treated for one week.

[4] = test system: ALP (alkaline phosphatase) in primary osteoblast (POB) cells; assay: ALP staining in differentiated primary osteoblast cells; assay type: cell-based; settings: 20 μM, differentiated and stained for 9 days (FIG. 8)
Protocol: In addition, in order to confirm the activity of ALP (alkaline phosphatase) showing the activation of bones, 20 μM of gallocatechin was treated with primary osteoblast (POB) cells, and allowed to differentiate and stain for 9 days.

| Compound | specific clinical symptoms and died animals [1] | toxic changes in body weight, blood tests, blood biochemical tests and autopsy findings [1] | activity of ALP [2] | thickness of the calvaria ([3]; 2 nM gallocatechin) | expression of ALP (staining) [4] | thickness of the calvaria ([3]; 0.2 nM methyl vanillate) |
| --- | --- | --- | --- | --- | --- | --- |
| Oc1cc(O)c2c(c1)O[C@H](c1cc(O)c(O)c(O)c1)[C@@H](O)C2 [gallocatechin] | not found | not observed | increased | increased | increased |  |
| COC(=O)c1ccc(O)c(OC)c1 [methyl vanillate] |  |  | increased |  |  | increased |
